Data set [1] concerns the target T1, RET (Homo sapiens, UniProt P07949).
T1 construct: expresses the amino acid region 658-1072 (Swiss prot No. Q9BTB0); made in house; host or cells: Sf9 insect cells (baculovirus, vector pFB-GSTX3)
T1 sequence (P07949 658-1072 isoform P07949-2): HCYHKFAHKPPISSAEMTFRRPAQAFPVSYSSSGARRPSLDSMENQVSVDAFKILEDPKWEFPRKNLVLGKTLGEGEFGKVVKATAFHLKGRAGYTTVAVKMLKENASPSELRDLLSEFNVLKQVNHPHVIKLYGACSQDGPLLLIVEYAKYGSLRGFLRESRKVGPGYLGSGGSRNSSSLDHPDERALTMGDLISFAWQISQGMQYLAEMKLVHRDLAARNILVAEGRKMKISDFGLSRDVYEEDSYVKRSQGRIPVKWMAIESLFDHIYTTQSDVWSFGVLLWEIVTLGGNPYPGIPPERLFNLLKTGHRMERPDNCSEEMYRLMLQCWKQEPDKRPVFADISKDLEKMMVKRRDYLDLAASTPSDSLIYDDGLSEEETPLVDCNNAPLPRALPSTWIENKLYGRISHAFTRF
The experiment in a line: RET kinase inhibition (33P incorporation into poly(Glu,Tyr), GST-wtRET or GST-RET-Men2B). Format: biochemical. On the procedure: RET kinase inhibition is determined as follows:
The coding sequence for the cytoplasmic domain of wtRET is amplified by PCR from a cDNA library using specific primers. RET-Men2B is generated through site-directed mutagenesis resulting in the M918T mutation. The amplified DNA fragments and the pFB-GSTX3 vector are made compatible for ligation by digestion with SalI and KpnI. Ligation of these DNA fragments results in the baculovirus donor plasmids […] and pFB-GX3-RET-Men2B, respectively.
Production of virus: The baculovirus donor plasmids containing the kinase domains are transfected into the DH10Bac cell line (GIBCO) and the transfected cells are plated on selective agar plates. Colonies without insertion of the fusion sequence into the viral genome (carried by the bacteria) are blue. Single, white colonies are picked and viral DNA (bacmid) is isolated from the bacteria by standard plasmid purification procedures. Sf9 cells or Sf21 cells (American Type Culture Collection) are then transfected in 25 cm^2 flasks with the viral DNA using Cellfectin reagent.
Protein expression in Sf9 cells: Virus-containing media is collected from the transfected cell culture and used for infection to increase its titer. Virus-containing media obtained after two rounds of infection is used for large-scale protein expression. For large-scale protein expression 100 cm^2 round tissue culture plates are seeded with 5×10^7 cells/plate and infected with 1 mL of virus-containing media (approximately 5 MOIs). After 3 days, the cells are scraped off the plate and centrifuged at 500 rpm for 5 minutes. Cell pellets from 10-20, 100 cm^2 plates are re-suspended in 50 mL of ice-cold lysis buffer (25 mM Tris-HCl, pH 7.5, 2 mM EDTA, 1% NP-40, 1 mM DTT, 1 mM PMSF). The cells are stirred on ice for 15 minutes and then centrifuged at 5,000 rpms for 20 minutes.
Purification of GST-tagged proteins: The centrifuged cell lysate is loaded onto a 2 mL glutathione-sepharose column (Pharmacia) and washed 3× with 10 mL of 25 mM Tris-HCl, pH 7.5, 2 mM EDTA, 1 mM DTT, 200 mM NaCl. The GST-tagged proteins are then eluted by 10 applications (1 mL each) of 25 mM Tris-HCl, pH 7.5, 10 mM reduced-glutathione, 100 mM NaCl, 1 mM DTT, 10% glycerol and stored at −70° C.
Measure of enzyme activity: Tyrosine protein kinase assays with either purified GST-wtRET or GST-RET-Men2B protein are carried out in a final volume of 30 μL containing 15 ng of either GST-RET or GST-RET-Men2B protein, 20 mM Tris-HCl, pH 7.5, 1 mM MnCl2, 10 mM MgCl2, 1 mM DTT, 3 μg/mL poly(Glu, Tyr) 4:1, 1% DMSO, 2.0 μM ATP (γ-[^33P]-ATP 0.1 μCi). The activity is assayed in the presence or absence of inhibitors, by measuring the incorporation of ^33P from [γ^33P] ATP into poly(Glu, Tyr) 4:1. […] Subsequently, 40 μL of the reaction mixture are transferred onto Immobilon-PVDF membrane (Millipore) previously soaked for 5 minutes with methanol, rinsed with water, then soaked for 5 minutes with 0.5% H3PO4 and mounted on vacuum manifold with disconnected vacuum source. After spotting all samples, vacuum is connected and each well rinsed with 200 μL 0.5% H3PO4. Membranes are removed and washed 4× on a shaker with 1.0% H3PO4, once with ethanol. Membranes are counted after drying at ambient temperature, mounting in Packard TopCount 96-well frame, and addition of 10 μl/well of Microscint™ (Packard). […] One unit of protein kinase activity is defined as 1 nmole of ^33P transferred from [γ^33P] ATP to the substrate protein/minute/mg of protein at 37° C.

For data set [2], the target named is T2, Flt-3 (Homo sapiens, UniProt P36888).
T2 construct: amino acids 563-993 of the cytoplasmic kinase domain of human Flt-3; made in house; host or cells: Sf9 insect cells (baculovirus, vector pFbacG01)
T2 sequence (P36888 563-993): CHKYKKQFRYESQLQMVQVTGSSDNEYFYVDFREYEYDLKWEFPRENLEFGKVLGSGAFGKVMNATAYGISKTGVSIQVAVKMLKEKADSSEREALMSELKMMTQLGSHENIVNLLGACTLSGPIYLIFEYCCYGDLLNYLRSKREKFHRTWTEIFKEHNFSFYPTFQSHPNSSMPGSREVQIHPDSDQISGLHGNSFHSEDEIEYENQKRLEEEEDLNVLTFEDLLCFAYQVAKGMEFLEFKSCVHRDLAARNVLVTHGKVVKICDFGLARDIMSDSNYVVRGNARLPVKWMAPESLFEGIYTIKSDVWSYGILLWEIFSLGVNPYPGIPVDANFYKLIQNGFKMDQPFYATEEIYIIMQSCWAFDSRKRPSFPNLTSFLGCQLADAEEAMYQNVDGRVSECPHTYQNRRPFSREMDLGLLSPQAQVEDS
The experiment in a line: Flt-3 kinase inhibition (GST-Flt-3, 33P incorporation into poly(Glu,Tyr)). Format: biochemical. On the procedure: Flt-3 kinase inhibition is determined as follows: The baculovirus donor vector pFbacG01 (GIBCO) is used to generate a recombinant baculovirus expressing the amino acid region amino acids 563-993 of the cytoplasmic kinase domain of human Flt-3. The coding sequence for the cytoplasmic domain of Flt-3 is amplified by PCR from human c-DNA libraries (Clontech). The amplified DNA fragments and the pFbacG01 vector are made compatible for ligation by digestion with BamHI and HindIII. Ligation of these DNA fragments results in the baculovirus donor plasmid pFbacG01-Flt-3. The production of the viruses, the expression of proteins in Sf9 cells and the purification of the GST-fused proteins are performed as follows:
Production of virus: The baculovirus donor plasmid (pFbacG01-Flt-3) containing the Flt-3 kinase domain is transfected into the DH10Bac cell line (GIBCO) and the transfected cells are plated on selective agar plates. Colonies without insertion of the fusion sequence into the viral genome (carried by the bacteria) are blue. Single white colonies are picked and viral DNA (bacmid) is isolated from the bacteria by standard plasmid purification procedures. Sf9 or Sf21 cells (American Type Culture Collection) are then transfected in flasks with the viral DNA using Cellfectin reagent.
Protein expression in Sf9 cells: Virus containing media is collected from the transfected cell culture and used for infection to increase its titre. Virus containing media obtained after two rounds of infection is used for large-scale protein expression. For large-scale protein expression 100 cm^2 round tissue culture plates are seeded with 5×10^7 cells/plate and infected with 1 mL of virus-containing media (approx. 5 MOIs). After 3 days the cells are scraped off the plate and centrifuged at 500 rpm for 5 min. Cell pellets from 10-20, 100 cm^2 plates are resuspended in 50 mL of ice-cold lysis buffer (25 mM Tris-HCl, pH 7.5, 2 mM EDTA-1% NP-40. 1 mM DTT, 1 mM PMSF). The cells are stirred on ice for 15 min and then centrifuged at 5000 rpms for 20 min.
Purification of GST-tagged protein: The centrifuged cell lysate is loaded onto a 2 mL glutathione-sepharose column (Pharmacia) and washed three times with 10 mL of 25 mM Tris-HCl, pH 7.5, 2 mM EDTA, 1 mM DTT, 200 mM NaCl. The GST-tagged protein is then eluted by 10 applications (1 mL each) of 25 mM Tris-HCl, pH 7.5, 10 mM reduced-glutathione, 100 mM NaCl, 1 mM DTT, 10% Glycerol and stored at −70° C.
Measurement of enzyme activity: Tyrosine protein kinase assays with purified GST-Flt-3 protein are carried out in a final volume of 30 μL containing 200-1800 ng of enzyme protein (depending on the specific activity), 20 mM Tris-HCl, pH 7.6, 3 mM MnCl2, 3 mM MgCl2, 1 mM DTT, 10 μM Na3VO4, 3 μg/mL poly(Glu, Tyr) 4:1, 1% DMSO, 8.0 μM ATP and 0.1 μCi [γ^33 P] ATP. The activity is assayed in the presence or absence of inhibitors, by measuring the incorporation of ^33P from [γ^33P] ATP into the poly(Glu,Tyr) substrate. The assay (30 μL) is carried out in 96-well plates at ambient temperature for 20 min and terminated by the addition of 20 μL of 125 mM EDTA. Subsequently, 40 μL of the reaction mixture is transferred onto Immobilon-PVDF membrane (Millipore, Bedford, Mass., USA) previously soaked for 5 min with methanol, rinsed with water, then soaked for 5 min with 0.5% H3PO4 and mounted on vacuum manifold with disconnected vacuum source. After spotting all samples, vacuum is connected and each well rinsed with 200 μL 0.5% H3PO4. Membranes are removed and washed 4× on a shaker with 1.0% H3PO4, once with ethanol. Membranes are counted after drying at ambient temperature, mounting in Packard TopCount 96-well frame, and addition of 10 μL/well of Microscint™ (Packard). IC50 values are calculated by linear regression analysis of the percentage inhibition of each compound in duplicate, at four concentrations (usually 0.01, 0.1, 1 and 10 μM). One unit of protein kinase activity is defined as 1 nmole of ^33P transferred from [γ3P] […]

pIC50: −log10 of the molar value.

Take `CNc1cc(Oc2ccc(NC(=O)Nc3cc(CN4CCN(C)CC4)cc(C(F)(F)F)c3)cc2)ncn1` [1-[4-(6-Methylamino-pyrimidin-4-yloxy)-phenyl]-3-[3-(4-methyl-piperazin-1-ylmethyl)-5-trifluoromethyl-phenyl]-urea]: the pIC50 (as a rule, −log10 of the IC50, conventionally taken in molar units) in data set [1] was 6.23. `CNc1cc(Oc2ccc(NC(=O)Nc3ccc(CN4CCNCC4)c(C(F)(F)F)c3)cc2)ncn1` [Example 19-2, N-[4-(6-Methylamino-pyrimidin-4-yloxy)-phenyl]-N′-[4-(4-H-piperazin-1-ylmethyl)-5-trifluoromethyl-phenyl]-urea]: the melting point (in general, the temperature of the solid-liquid transition) was in the range of 197 to 198 °C. The negative logarithm of the IC50 (pIC50) in data set [2] is 7.10. The corresponding values for `CNc1cc(Oc2ccc(NC(=O)Nc3ccc(-c4ccccn4)c(C(F)(F)F)c3)cc2)ncn1` [Example 61, 1-[4-(6-Methylamino-pyrimidin-4-yloxy)-phenyl]-3-(4-pyridin-2-yl-3-trifluoromethyl-phenyl)-urea] are 114 to 118 °C and 6.31. As to `Cc1ncn(Cc2ccc(NC(=O)Nc3ccc(Oc4cc(Cl)ncn4)cc3)cc2C(F)(F)F)c1C` [Example 23, N-[4-(6-Chloro-pyrimidin-4-yloxy)-phenyl]-N′-[4-(4,5-dimethylimidazol-1-ylmethyl)-3-trifluoromethyl-phenyl]-urea], the melting point lay in the range of 195 to 196 °C. In data set [2], this molecule showed a negative logarithm of the IC50 (pIC50) of 5.89. Turning to `CNc1cc(Oc2ccc(NC(=O)Nc3cc(CN(C)C)cc(C(F)(F)F)c3)cc2)ncn1` [1-(3-Dimethylaminomethyl-5-trifluoromethyl-phenyl)-3-[4-(6-methylamino-pyrimidin-4-yloxy)-phenyl]-urea], the pIC50 in data set [1] is 6.96. On to `CNc1cc(Oc2ccc(NC(=O)Nc3ccc(-c4ccncc4)c(C(F)(F)F)c3)cc2)ncn1` [Example 63, 1-[4-(6-Methylamino-pyrimidin-4-yloxy)-phenyl]-3-(4-pyridin-4-yl-3-trifluoromethyl-phenyl)-urea], for which the melting point lay within 127 to 130 °C. For the same molecule, the negative-log IC50 (pIC50) in data set [2] is 6.85. In the case of `CN1CCN(Cc2cc(NC(=O)Nc3ccc(Oc4cc(N)ncn4)cc3)cc(C(F)(F)F)c2)CC1` [1-[4-(6-Amino-pyrimidin-4-yloxy)-phenyl]-3-[3-(4-methyl-piperazin-1-ylmethyl)-5-trifluoromethyl-phenyl]-urea], the pIC50 in data set [1] was 6.59. `Nc1cc(Oc2ccc(NC(=O)Nc3ccc(-c4ccncc4)c(C(F)(F)F)c3)cc2)ncn1` [Example 59, 1-[4-(6-Amino-pyrimidin-4-yloxy)-phenyl]-3-(4-pyridine-4-yl-3-trifluoromethyl-phenyl)-urea]: the melting point lay within 131 to 135 °C. For the same molecule, the negative-log IC50 (pIC50) in data set [2] is 7.12. For `CCN(CC)Cc1cc(NC(=O)Nc2ccc(Oc3cc(NC)ncn3)cc2)cc(C(F)(F)F)c1` [Example 11, N-[4-(6-Methylamino-pyrimidin-4-yloxy)-phenyl]-N′-(3-diethylaminomethyl-5-trifluoromethyl-phenyl)-urea], the melting point lay in the range of 68 to 70 °C. For the same molecule, the pIC50 in data set [2] is 6.64.

The values above are taken from patent US20080312192A1, “Diaryl Urea Derivatives in the Treatment of Protein Kinase Dependent Diseases” (priority 2003, published 2008).
